# Source: US9126983B2, “Extracts from kibdelos porangium as antibacterial agents” (Merck Sharp & Dohme Corp., priority 2009, dated 2015)
# Read-outs that look alike come from different tables or passages of the source.
# Key:
# [1] = tested on: Clostridium difficile (ATCC 43596); test: Agar dilution MIC, Clostridium difficile ATCC 43596; format: cell-based; conditions: Clostridioides difficile, ATCC43596, 48 h
# Description: (§1) Drug dilutions and drug-supplemented agar plates were prepared manually.
# (§2) The growth and test media were those recommended by the Clinical and Laboratory Standards Institute (CLSI) for growth and susceptibility testing of anaerobes. See Clinical and Laboratory Standards Institute (CLSI). Methods for Antimicrobial Susceptibility Testing of Anaerobic Bacteria; Approved Standard—Seventh Edition. CLSI document M11-A7 [ISBN1-56238-626-3]. Clinical and Laboratory Standards Institute, 940 West Valley Road, Suite 1400, Wayne, Pa. 19087-1898 USA, 2007.
# (§3) This medium is referred to as Supplemented Brucella Agar (SBA).
# (§4) The media were prepared as follows: Brucella agar was weighed and water was added to the final volume minus the volume of the hemin, vitamin K, and lysed sheep blood. The agar was dissolved by boiling. Hemin (5 μg/ml) and vitamin K (1 μg/ml) were added to the agar and it was autoclaved for 23 minutes at 121° C. The agar was allowed to cool to 50° C. and 18.5 ml was dispensed into sterile glass tubes. Immediately prior to pouring the plates 1 ml of lysed sheep blood and 0.5 ml of the appropriate drug dilution were added to the tube. The contents of the tube were gently mixed by inverting the tube, and the drug-supplemented agar was poured into a petri dish. […]
# (§5) The inocula for the MIC assay were prepared inside the Bactron II anaerobe chamber, as follows. […] The MIC was read per CLSI guidelines.
# [2] = tested on: Clostridium difficile (ATCC 700057); test: Agar dilution MIC, Clostridium difficile ATCC 700057; format: cell-based; conditions: Clostridioides difficile
# Description: as §1, §2, §3, §4, §5
# [3] = tested on: Clostridium difficile (ATCC 700057); conditions: published CLSI quality control range; cited from earlier work
# [4] = tested on: Haemophilus influenzae (MB4572); test: Microbroth dilution MIC, Haemophilus influenzae; format: cell-based; conditions: Haemophilus test medium; for MIC: read-out: MIC-100
# Source text: The strain of Haemophilus influenzae is a mouse pathogen used for in vivo testing at Merck. Selected isolates were subcultured onto either […] […] Isolates were subcultured twice before assay. […] Plates were read to no growth.
# [5] = tested on: Bacillus subtilis (MB964); test: Microbroth dilution MIC, Bacillus subtilis; format: cell-based; conditions: cation-adjusted Mueller Hinton broth, no visible growth; for MIC: read-out: MIC-100
# Source text: (§6) Selected isolates were subcultured onto either […] […] Isolates were subcultured twice before assay. […] Plates were read to no growth.
# [6] = tested on: Candida albicans (MY1055); test: Microbroth dilution MIC, Candida albicans control; format: cell-based; conditions: Candida albicans (MY1055) control strain, RPMI 1640; for MIC: read-out: MIC-100
# Source text: as §6
# [7] = tested on: Streptococcus pneumoniae (CL2883); test: Microbroth dilution MIC, Streptococcus pneumoniae; format: cell-based; conditions: cation-adjusted Mueller Hinton broth + lysed horse blood
# [8] = tested on: Staphylococcus aureus (MB2865); test: Microbroth dilution MIC, Staphylococcus aureus MB2865; format: cell-based; conditions: cation-adjusted Mueller Hinton broth, no visible growth
# Source text: The Staphylococcus aureus strains used were obtained from the Merck Culture Collection, and are identified as MB2865 and MB5957. […] Selected isolates were subcultured onto either […] Isolates were subcultured twice before assay. […] Plates were read to no growth.
# [9] = tested on: Escherichia coli envA1 tolC (MB5746); test: microbe, parasite or virus in culture; conditions: read-out: MIC-100
# [10] = tested on: Enterococcus faecalis (CL8516); test: Microbroth dilution MIC, Enterococcus faecalis; format: cell-based; conditions: cation-adjusted Mueller Hinton broth, no visible growth
# [11] = tested on: Escherichia coli envA1 tolC (MB5746); conditions: cell-wall permeable strain, cation-adjusted Mueller Hinton broth
compound,measurement,setting,value
"CN[C@H](CC(C)C)C(=O)N[C@H]1C(=O)N[C@@H](CC(N)=O)C(=O)N[C@H]2C(=O)N[C@H]3C(=O)N[C@H](C(=O)N[C@H](C(=O)O)c4cc(O)cc(O)c4-c4cc3ccc4O)[C@H](O)c3ccc(c(Cl)c3)Oc3cc2cc(c3O[C@@H]2O[C@H](CO)[C@@H](O)[C@H](O)[C@H]2O[C@H]2C[C@](C)(N)[C@H](O)[C@H](C)O2)Oc2ccc(cc2Cl)[C@H]1O [Vancomycin, vancomycin]",MIC,[1],1 µg/mL
same,MIC,"[2]; ATCC700057, 48 h",2 µg/mL
same,CLSI quality control range (MIC),[3],2 (0.5-4)^1 μg/mL
O=C(O)c1cn(C2CC2)c2cc(N3CCNCC3)c(F)cc2c1=O [Ciprofloxacin],MIC,[4],< 0.015 µg/mL
same,MIC,[5],0.06 µg/mL
same,MIC,[6],> 16 µg/mL
CC[C@H]1OC(=O)[C@H](C)[C@@H](O[C@H]2C[C@@](C)(OC)[C@@H](O)[C@H](C)O2)[C@H](C)[C@@H](O[C@@H]2O[C@H](C)C[C@H](N(C)C)[C@H]2O)[C@](C)(OC)C[C@@H](C)C(=O)[C@H](C)[C@@H](O)[C@]1(C)O [Clarithromycin],MIC,[7]; read-out: MIC-100,0.03 µg/mL
same,MIC,[8]; read-out: MIC-100,0.12 µg/mL
same,MIC,[9],0.12 µg/mL
same,MIC,[10]; read-out: MIC-100,2 µg/mL
same,MIC,[4],4 µg/mL
same,MIC,[5],0.06 µg/mL
same,MIC,[6],> 16 µg/mL
Cc1ncc([N+](=O)[O-])n1CCO [Metronidazole],MIC,[1],0.25 µg/mL
same,MIC,"[2]; ATCC700057, Clostridium difficile (ATCC 700057), agar dilution, Supplemented Brucella Agar, anaerobic, 35° C., 48 h, read-out: MIC",0.25 µg/mL
CC1(C)S[C@@H]2[C@H](NC(=O)Cc3ccccc3)C(=O)N2[C@H]1C(=O)O [Penicillin G],MIC-100,[7],<0.06 µg/mL
same,MIC-100,[8],<0.06 µg/mL
same,MIC-100,[10],0.5 µg/mL
same,MIC-100,[4],0.25 µg/mL
same,MIC-100,[11],8 µg/mL
same,MIC-100,[5],<0.06 µg/mL
same,MIC-100,[6],>64 µg/mL
